Assay results reported in patent US8088801B2, “Aryloazol-2-yl cyanoethylamino compounds, method of making and method of using thereof” (Merial Limited, priority 2007, dated 2012).

Columns and labels:
Haemonchus contortus [1] = assay: Method A: screening against Haemonchus contortus, L1 larvae in microtitre plate; conditions: 96 h, 4 days assessment, read-out: motility inhibition; for inhibition at 0.0025 ppm: test concentration 0.0025 ppm; for inhibition at 0.01 ppm: test concentration 0.01 ppm
From the text: Method A: Screening Method to Test Activity of Compounds Against Haemonchus contortus.

[2] = test system: Microfilaria of Dirofilaria immitis; assay: Method F: microfilaria of Dirofilaria immitis in microtitre plate; conditions: test concentration 50 ppm, assessment at 24 hours, read-out: motility inhibition
Method: Method F: Screening Method to Test Activity of Compounds Against Microfilaria of Dirofilaria immitis.
Four hundred to six hundred microfilaria of Dirofilaria immitis were added to wells of a microtitre plate containing buffer and the test compound in DMSO. The microtitre plate was then held at 37° C. in an environment containing 5% CO2. An assessment was conducted at 24 hours to determine survival of the microfilaria. Microfilaria exposed to DMSO and no test compound served as controls. Compounds numbers 1.003, 1.012, 1.013, 1.064, 1.086, 1.087, 1.090, 1.094, 2.043, 2.046, 2.047, 2.048, 2.049, 3.005, 3.006, 3.009, 3.011, 3.012, 3.017, 3.019 and 3.023 gave at least 90% motility inhibition at a test concentration of 50 ppm.

Haemonchus contortus [3] = assay: Method B: Haemonchus contortus in vivo in Mongolian gerbil, oral gavage; set-up: species or system Mongolian gerbil (Meriones unguiculatus); conditions: 72 h, Mongolian gerbils, read-out: reduction in nematode infestation; for inhibition in vivo at 100 mg/kg: necropsy 3 days after treatment
Method: Method B: Screening Method to Test Activity of Compounds Against Haemonchus contortus In Vivo in Mongolian Gerbil (Meriones unguiculatus).
Mongolian gerbils, at least five weeks old, were immunosuppressed and artificially infected with ca. 1000 ensheathed Haemonchus contortus third instar larvae. Six days after infection, the Mongolian gerbils were treated by oral gavage with the test compounds, dissolved in a mixture of 2 parts DMSO and 1 part polyethylene glycol (PEG400), at doses of 100 mg/kg and dissolved in pure polyethylene glycol (PEG400) at doses of 10 and 1 mg/kg. Jirds treated only with the placebo (2 parts DMSO and 1 part PEG400 or pure PEG400) served as controls. On day 9 (3 days after treatment) the jirds were euthanized and necropsied for recovery of parasites from the stomach. Efficacy was calculated as the average % reduction in the number of worms in each test group compared with the average number of worms from the control group. […] Compound numbers 1.001, 1.008, 1.012, 1.013 and 1.014 provided at least 95% reduction in nematode infestation in Mongolian gerbils treated by oral gavage with test article at a dose of 100 mg/kg. Compound numbers 1.012, 1.033, 1.064, 2.008, 2.037, 2.038, 2.040, 2.041, 3.001 provided at least 95% reduction in nematode infestation at a dose of 10 mg/kg. Compound numbers 1.094, 2.048, 3.001, 3.007 and 3.009, provided at least 95% reduction in nematode infestation at a dose of 1 mg/kg. Compound numbers 3.005, 3.006, 3.011, 3.012, 3.017 and 3.019, provided at least 95% reduction in nematode infestation at a dose of 0.5 mg/kg.

[4] = test system: Trichostrongylus colubriformis; assay: Method D: screening against Trichostrongylus colubriformis, L1 larvae in microtitre plate; conditions: 96 h, 4 days assessment, read-out: motility inhibition; for inhibition at 0.01 ppm: test concentration 0.01 ppm; for inhibition at 0.0025 ppm: test concentration 0.0025 ppm
Method: Method D: Screening Method to Test Activity of Compounds Against Trichostrongylus colubriformis.
Twenty L1 Trichostrongylus colubriformis larvae were added to wells of a microtitre plate containing a nutrient medium and the test compound in DMSO. The microtitre plate was then held at 27° C. where the L1 larvae were allowed to develop. An analysis was conducted at 4 days to determine successful development to the L3 stage. Larvae exposed to DMSO and no test compound served as controls. Compounds numbers 1.008, 1.014, 1.042, 1.047, 1.048, 1.073, 2.001, 2.003 and 2.020, gave at least 90% motility inhibition at a test concentration of 0.15 ppm at the 4 days assessment. Compounds numbers 1.001, 1.003, 1.007, 1.011, 1.037, 1.038, 1.043, 1.056, 1.066, 1.070, 1.071, 2.012 and 2.016, gave at least 90% motility inhibition at a test concentration of 0.04 ppm at the 4 days assessment. Compounds numbers 1.012, 1.020, 1.021, 1.033, 1.034, 1.039, 1.064, 1.065, 2.008, 2.009 and 3.005 gave at least 90% motility inhibition at a test concentration of 0.01 ppm at the 4 days assessment. Compounds numbers 1.094, 2.040, 2.048, 2.049, 3.006, 3.009, 3.011 and 3.012 gave at least 90% motility inhibition at a test concentration of 0.0025 ppm at the 4 days assessment.

Compound | inhibition at 0.0025 ppm (Haemonchus contortus [1]) [%] | inhibition at 50 ppm [2] [%] | inhibition at 0.01 ppm [4] [%] | inhibition at 0.01 ppm (Haemonchus contortus [1]) [%] | other results
CC(C#N)(Cn1nc2c(Cl)cc(Cl)c(F)c2n1)NC(=O)c1ccc(OC(F)(F)F)cc1 (stereo not shown) [Compound 1.090, N-[1-Cyano-2-(5,7-dichloro-4-fluoro-2H-benzotriazol-2-yl)-1-methylethyl]-4-trifluoromethoxybenzamide] | ≥ 90 | ≥ 90 |  |  | 
CC(C#N)(Cn1nc2c(Cl)cc(Cl)c(Cl)c2n1)NC(=O)c1ccc(OC(F)(F)F)cc1 (stereo not shown) [Compound 1.064, N-[1-Cyano-1-methyl-2-(4,5,7-trichloro-2H-benzotriazol-2-yl)-ethyl]-4-trifluoromethoxybenzamide] | ≥ 90 | ≥ 90 | ≥ 90 |  | inhibition in vivo at 10 mg/kg (Haemonchus contortus [3]): ≥ 95%
CC(C#N)(Cn1nc2cc(Cl)cnc2c1Br)NC(=O)c1ccc(OC(F)(F)F)cc1 (stereo not shown) [Compound 3.019, N-[2-(3-Bromo-6-chloro-2H-pyrazolo[4,3-b]pyridin-2-yl)-1-cyano-1-methylethyl]-4-trifluoromethoxybenzamide] |  | ≥ 90 |  |  | inhibition at 0.04 ppm (Haemonchus contortus [1]; test concentration 0.04 ppm): ≥ 90%; inhibition in vivo at 0.5 mg/kg (Haemonchus contortus [3]): ≥ 95%
CC(C#N)(Cn1cc2ccc(Cl)c(Br)c2n1)NC(=O)c1ccc(OC(F)(F)F)cc1 (stereo not shown) [Compound 2.043, N-[2-(7-Bromo-6-chloro-2H-indazol-2-yl)-1-cyano-1-methylethyl]-4-trifluoromethoxybenzamide] | ≥ 90 | ≥ 90 |  |  | 
CC(C#N)(Cn1nc2ccc(Cl)cc2n1)NC(=O)c1ccc(OC(F)(F)F)cc1 (stereo not shown) [Compound 1.001, N-[2-(5-Chloro-2H-benzotriazol-2-yl)-1-cyano-1-methylethyl]-4-trifluoromethoxybenzamide] |  |  |  | ≥ 90 | inhibition in vivo at 100 mg/kg (Haemonchus contortus [3]): ≥ 95%; inhibition at 0.04 ppm ([4]; test concentration 0.04 ppm): ≥ 90%
Cc1cc(Cl)cc2nn(CC(C)(C#N)NC(=O)c3ccc(OC(F)(F)F)cc3)nc12 (stereo not shown) [Compound 1.033, N-[−2-(6-Chloro-4-methyl-2H-benzotriazol-2-yl)-1-cyano-1-methylethyl]-4-trifluoromethoxybenzamide] |  |  | ≥ 90 | ≥ 90 | inhibition in vivo at 10 mg/kg (Haemonchus contortus [3]): ≥ 95%
Cc1c(Br)cnc2cn(CC(C)(C#N)NC(=O)c3ccc(OC(F)(F)F)cc3)nc12 (stereo not shown) [Compound 3.009, N-[2-(6-Bromo-7-methyl-2H-pyrazolo[4,3-b]pyridin-2-yl)-1-cyano-1-methylethyl]-4-trifluoromethoxybenzamide] | ≥ 90 | ≥ 90 |  |  | inhibition in vivo at 1 mg/kg (Haemonchus contortus [3]): ≥ 95%; inhibition at 0.0025 ppm [4]: ≥ 90%
Cc1cc(Br)c(F)c2nn(CC(C)(C#N)NC(=O)c3ccc(OC(F)(F)F)cc3)nc12 (stereo not shown) [Compound 1.094, N-[2-(5-bromo-4-fluoro-7-methyl-2H-benzotriazol-2-yl)-1-cyano-1-methylethyl]-4-trifluoromethoxybenzamide] | ≥ 90 | ≥ 90 |  |  | inhibition in vivo at 1 mg/kg (Haemonchus contortus [3]): ≥ 95%; inhibition at 0.0025 ppm [4]: ≥ 90%
CC(C#N)(Cn1nc2cc(Cl)cc(Cl)c2n1)NC(=O)c1ccc(OC(F)(F)F)cc1 (stereo not shown) [Compound 1.012, N-[1-Cyano-2-(4,6-dichloro-2H-benzotriazol-2-yl)-1-methylethyl]-4-trifluoromethoxybenzamide] |  | ≥ 90 | ≥ 90 | ≥ 90 | inhibition in vivo at 10 mg/kg (Haemonchus contortus [3]): ≥ 95%; inhibition in vivo at 100 mg/kg (Haemonchus contortus [3]): ≥ 95%
CC(C#N)(Cn1cc2ncc(Cl)cc2n1)NC(=O)c1ccc(OC(F)(F)F)cc1 (stereo not shown) [Compound 3.005, N-[2-(6-Chloro-2H-pyrazolo[4,3-b]pyridin-2-yl)-1-cyano-1-methylethyl]-4-trifluoromethoxybenzamide] |  | ≥ 90 | ≥ 90 | ≥ 90 | inhibition in vivo at 0.5 mg/kg (Haemonchus contortus [3]): ≥ 95%
CC(C#N)(Cn1nc2c(Br)c(Cl)cc(Cl)c2c1Br)NC(=O)c1ccc(OC(F)(F)F)cc1 (stereo not shown) [Compound 2.046, N-[1-Cyano-2-(3,7-dibromo-4,6-dichloro-2H-indazol-2-yl)-1-methylethyl]-4-trifluoromethoxybenzamide] | ≥ 90 | ≥ 90 |  |  | 
CC(C#N)(Cn1cc2ncc(Br)cc2n1)NC(=O)c1ccc(OC(F)(F)F)cc1 (stereo not shown) [Compound 3.011, N-[2-(6-Bromo-2H-pyrazolo[4,3-b]pyridin-2-yl)-1-cyano-1-methylethyl]-4-trifluoromethoxybenzamide] | ≥ 90 | ≥ 90 |  |  | inhibition in vivo at 0.5 mg/kg (Haemonchus contortus [3]): ≥ 95%; inhibition at 0.0025 ppm [4]: ≥ 90%
COc1c2ccc(Cl)cc2nn1CC(C)(C#N)NC(=O)c1ccc(OC(F)(F)F)cc1 (stereo not shown) [Compound 2.008, N-[2-(6-Chloro-3-methoxy-2H-indazol-2-yl)-1-cyano-1-methylethyl]-4-trifluoromethoxybenzamide] | ≥ 90 |  | ≥ 90 |  | inhibition in vivo at 10 mg/kg (Haemonchus contortus [3]): ≥ 95%
CC(C#N)(Cn1cc2c(Cl)cc(Cl)c(Cl)c2n1)NC(=O)c1ccc(OC(F)(F)F)cc1 (stereo not shown) [Compound 2.048, N-[1-Cyano-1-methyl-2-(4,6,7-trichloro-2H-indazol-2-yl)ethyl]-4-trifluoromethoxybenzamide] | ≥ 90 | ≥ 90 |  |  | inhibition in vivo at 1 mg/kg (Haemonchus contortus [3]): ≥ 95%; inhibition at 0.0025 ppm [4]: ≥ 90%
CC(C#N)(Cn1nc2cc(Cl)cnc2c1Cl)NC(=O)c1ccc(OC(F)(F)F)cc1 (stereo not shown) [Compound 3.017, N-[1-Cyano-2-(3,6-dichloro-2H-pyrazolo[4,3-b]pyridin-2-yl)-1-methylethyl]-4-trifluoromethoxybenzamide] |  | ≥ 90 |  | ≥ 90 | inhibition in vivo at 0.5 mg/kg (Haemonchus contortus [3]): ≥ 95%
CC(C#N)(Cn1nc2c(Cl)cc(Cl)c(Br)c2n1)NC(=O)c1ccc(OC(F)(F)F)cc1 (stereo not shown) [Compound 1.086, N-[2-(4-Bromo-5,7-dichloro-2H-benzotriazol-2-yl)-1-cyano-1-methylethyl]-4-trifluoromethoxybenzamide] | ≥ 90 | ≥ 90 |  |  | 
